Measurements published in patent publication US6410483B1, “Phenylsulfonylureas, processes for their preparation, and their use as herbicides and plant growth regulators” (Hoechst Schering AgrEvo GmbH, priority 1997, dated 2002).

With `COC(=O)NCCc1ccc(C(=O)OC)c(S(=O)(=O)NC(=O)Nc2nc(OC)cc(OC)n2)c1` [Example A5, Methyl 2-[(4,6-Dimethoxypyrimidin-2-yl)aminocarbonylaminosulfonyl]-4-[2-(methoxycarbonylamino)ethyl]benzoate] the melting point was 165 to 169 °C (dec.).
